The text below walks through data of ChEMBL document CHEMBL1909046, “DrugMatrix in vitro pharmacology data”.

Each structure is given as a SMILES string.

Experiment [1] concerns the target Vascular endothelial growth factor receptor 1 (Homo sapiens, UniProt P17948). Put plainly: biochemical. Conditions: huvec. The format is cell-based, HUVEC. Also: in other assays of this panel Not Active means under 50% inhibition at 10 µM.
The nature of experiment [2]: DRUGMATRIX: Glutamate, NMDA, Phencyclidine radioligand binding (ligand: [3H] TCP). It counts as cell membranes, Rattus norvegicus, Wistar, Cerebral cortex, Membrane. The following applies: Not Active = under 50% inhibition at 10 µM.
Experiment [3] in a line: DRUGMATRIX: Imidazoline I2, Central radioligand binding (ligand: [3H] Idazoxan). It counts as cell membranes, Rattus norvegicus, Wistar, Cerebral cortex, Membrane. The following applies: Not Active = under 50% inhibition at 10 µM.
Experiment [4] in a line: DRUGMATRIX: Calcium Channel Type L, Phenylalkylamine radioligand binding (ligand: [3H] (-)-Desmethoxyverapamil (D-888)). The format is cell membranes, Rattus norvegicus, Wistar, Brain, Membrane. Conditions: Not Active = under 50% inhibition at 10 µM.
Experiment [5] has as its target T1, Alpha-2A adrenergic receptor (Homo sapiens, UniProt P08913). Also: in other assays of this panel Not Active means under 50% inhibition at 10 µM.
T1 sequence (P08913 whole entry): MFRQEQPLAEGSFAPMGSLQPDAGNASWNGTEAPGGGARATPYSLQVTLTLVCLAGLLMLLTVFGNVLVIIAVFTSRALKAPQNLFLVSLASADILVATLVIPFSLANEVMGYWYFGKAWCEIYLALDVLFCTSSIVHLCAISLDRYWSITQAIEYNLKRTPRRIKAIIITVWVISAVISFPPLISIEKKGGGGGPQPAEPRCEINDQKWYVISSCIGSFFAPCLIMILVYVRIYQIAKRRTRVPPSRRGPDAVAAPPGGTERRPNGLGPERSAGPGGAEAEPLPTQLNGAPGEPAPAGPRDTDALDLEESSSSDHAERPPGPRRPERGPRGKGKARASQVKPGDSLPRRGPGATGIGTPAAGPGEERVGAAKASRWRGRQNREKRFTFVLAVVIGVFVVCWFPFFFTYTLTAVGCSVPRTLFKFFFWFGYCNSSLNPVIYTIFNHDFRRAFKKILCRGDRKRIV
It counts as cell membranes, Sf9, Membrane.

Chain of Vascular endothelial growth factor receptor 1 (P17948 whole entry): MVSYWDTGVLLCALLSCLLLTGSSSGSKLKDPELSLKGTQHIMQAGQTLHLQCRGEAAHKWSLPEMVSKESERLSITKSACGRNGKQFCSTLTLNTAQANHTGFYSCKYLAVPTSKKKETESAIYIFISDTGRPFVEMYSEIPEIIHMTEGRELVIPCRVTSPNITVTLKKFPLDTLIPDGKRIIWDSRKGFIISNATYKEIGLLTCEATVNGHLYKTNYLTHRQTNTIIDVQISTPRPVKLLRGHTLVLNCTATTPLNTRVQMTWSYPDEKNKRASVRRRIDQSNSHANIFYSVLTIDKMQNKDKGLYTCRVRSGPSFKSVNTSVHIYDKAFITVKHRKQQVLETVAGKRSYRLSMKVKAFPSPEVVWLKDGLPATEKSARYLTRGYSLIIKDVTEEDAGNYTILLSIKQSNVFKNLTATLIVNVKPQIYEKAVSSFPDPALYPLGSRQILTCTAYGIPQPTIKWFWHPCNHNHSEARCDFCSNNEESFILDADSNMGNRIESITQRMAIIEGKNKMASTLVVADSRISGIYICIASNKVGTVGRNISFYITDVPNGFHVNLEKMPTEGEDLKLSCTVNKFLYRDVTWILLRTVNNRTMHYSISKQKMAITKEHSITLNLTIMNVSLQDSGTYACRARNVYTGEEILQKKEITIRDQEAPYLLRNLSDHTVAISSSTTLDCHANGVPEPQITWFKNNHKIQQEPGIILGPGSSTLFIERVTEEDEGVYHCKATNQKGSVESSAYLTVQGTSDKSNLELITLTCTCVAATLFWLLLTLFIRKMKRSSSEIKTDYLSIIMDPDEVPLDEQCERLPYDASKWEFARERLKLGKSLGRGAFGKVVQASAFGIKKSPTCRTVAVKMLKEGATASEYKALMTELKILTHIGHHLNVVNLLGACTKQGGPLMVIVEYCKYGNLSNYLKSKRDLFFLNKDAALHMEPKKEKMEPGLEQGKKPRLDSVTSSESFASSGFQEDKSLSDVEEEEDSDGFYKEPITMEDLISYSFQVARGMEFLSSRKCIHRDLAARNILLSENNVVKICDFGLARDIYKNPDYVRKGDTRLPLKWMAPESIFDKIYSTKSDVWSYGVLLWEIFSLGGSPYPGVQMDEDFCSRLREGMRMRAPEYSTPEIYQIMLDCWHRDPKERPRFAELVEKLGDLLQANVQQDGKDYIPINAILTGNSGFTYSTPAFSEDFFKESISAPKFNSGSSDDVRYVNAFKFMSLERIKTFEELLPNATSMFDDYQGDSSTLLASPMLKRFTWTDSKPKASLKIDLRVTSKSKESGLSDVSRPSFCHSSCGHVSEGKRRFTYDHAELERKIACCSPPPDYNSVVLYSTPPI

As usually defined, the IC50 is the point on the concentration scale where inhibition reaches its midpoint. Usually Ki stands for a dissociation constant, usually derived from enzyme kinetics or from competition with a known ligand. Consider `COc1ccc2c3c1O[C@H]1C[C@@H](O)C=C[C@@]31CCN(C)C2` [GALANTAMINE], for which the IC50 entry in experiment [1], in experiment [2], in experiment [3], in experiment [4] and in experiment [5] (sf9) was “Not Active” in each case. Moreover, the Ki entry in experiment [2], in experiment [3] and in experiment [4] was “Not Active” each time.
Turning to `Nc1ccn([C@@H]2O[C@H](CO)[C@@H](O)C2(F)F)c(=O)n1` [GEMCITABINE], the IC50 entry in experiment [1], in experiment [2], in experiment [3], in experiment [4] and in experiment [5] (sf9) was “Not Active” throughout. The Ki result in experiment [2], in experiment [3] and in experiment [4] was “Not Active” in each case.
With `CC(C)=CCC/C(C)=C/CO` [GERANIOL], the IC50 entry in experiment [1], in experiment [2], in experiment [3], in experiment [4] and in experiment [5] (sf9) was “Not Active” in each case. In addition, the Ki result in experiment [2], in experiment [3] and in experiment [4] was “Not Active” throughout.
On to `Oc1c(Cl)cc(Cl)c(Cl)c1Cc1c(O)c(Cl)cc(Cl)c1Cl` [HEXACHLOROPHENE], for which the IC50 result in experiment [1] is “Not Active”; in experiment [2] it was “Not Active”; in experiment [3] it was “Not Active”; in experiment [4], “Not Active”; in experiment [5] (read-out: IC50) it was 5.5 µM. Moreover, the Ki result was “Not Active” in experiment [2], “Not Active” in experiment [3], “Not Active” in experiment [4] and 2.06 µM in experiment [5] (read-out: Ki).
Turning to `NNc1nncc2ccccc12` [HYDRALAZINE], the IC50 entry in experiment [1], in experiment [2], in experiment [3], in experiment [4] and in experiment [5] (sf9) was “Not Active” each time. The Ki entry in experiment [2], in experiment [3] and in experiment [4] was “Not Active” in each case.
On to `CC(=O)[C@@]1(O)CC[C@H]2[C@@H]3CCC4=CC(=O)CC[C@]4(C)[C@H]3CC[C@@]21C` [HYDROXYPROGESTERONE], for which the IC50 entry in experiment [1], in experiment [2], in experiment [3], in experiment [4] and in experiment [5] (sf9) was “Not Active” in each case. Besides, the Ki result in experiment [2], in experiment [3] and in experiment [4] was “Not Active” in each case.
For the molecule `COC1=C(OC)C(=O)C(CCCCCCCCCCO)=C(C)C1=O` [IDEBENONE], the IC50 result in experiment [1], in experiment [2], in experiment [3], in experiment [4] and in experiment [5] (sf9) was “Not Active” in each case. In addition, the inhibition constant Ki result in experiment [2], in experiment [3] and in experiment [4] was “Not Active” in each case.
With `CC(C)NNC(=O)c1ccncc1` [IPRONIAZID], the IC50 result in experiment [1], in experiment [2], in experiment [3], in experiment [4] and in experiment [5] (sf9) was “Not Active” throughout. The Ki result in experiment [2], in experiment [3] and in experiment [4] was “Not Active” throughout.
Take `Cc1c(OCC(F)(F)F)ccnc1C[S+]([O-])c1nc2ccccc2[nH]1` (stereo not given) [LANSOPRAZOLE]: the IC50 result in experiment [1], in experiment [2], in experiment [3], in experiment [4] and in experiment [5] (sf9) was “Not Active” throughout. The Ki entry in experiment [2], in experiment [3] and in experiment [4] was “Not Active” each time.
On to `O=c1cc(N2CCOCC2)oc2c(-c3ccccc3)cccc12` [LY-294002], for which the IC50 entry in experiment [1], in experiment [2], in experiment [3], in experiment [4] and in experiment [5] (sf9) was “Not Active” in each case. For the same molecule, the Ki result in experiment [2], in experiment [3] and in experiment [4] was “Not Active” each time.
In the case of `COc1ccc2[nH]cc(CCNC(C)=O)c2c1` [MELATONIN], the IC50 entry in experiment [1], in experiment [2], in experiment [3], in experiment [4] and in experiment [5] (sf9) was “Not Active” throughout. In addition, the Ki result in experiment [2], in experiment [3] and in experiment [4] was “Not Active” throughout.
On to `NC(=O)C[S+]([O-])C(c1ccccc1)c1ccccc1` (stereo not given) [MODAFINIL], for which the IC50 result in experiment [1], in experiment [2], in experiment [3], in experiment [4] and in experiment [5] (sf9) was “Not Active” in each case. The Ki result in experiment [2], in experiment [3] and in experiment [4] was “Not Active” in each case.
Consider `CCN(CC)CCOCCC1=CCC2CC1C2(C)C` (stereo not given) [MYRTECAINE], for which the IC50 entry in experiment [1], in experiment [2], in experiment [3], in experiment [4] and in experiment [5] (sf9) was “Not Active” in each case. Moreover, the Ki result in experiment [2], in experiment [3] and in experiment [4] was “Not Active” each time.
On to `O=C(O)c1cccnc1Nc1cccc(C(F)(F)F)c1` [NIFLUMIC ACID], for which the IC50 result in experiment [1], in experiment [2], in experiment [3], in experiment [4] and in experiment [5] (sf9) was “Not Active” in each case. The Ki result in experiment [2], in experiment [3] and in experiment [4] was “Not Active” each time.
Take `O=C(N/N=C/c1ccc([N+](=O)[O-])o1)c1cc([N+](=O)[O-])cc([N+](=O)[O-])c1O` [NIFURSOL]: the IC50 entry in experiment [1], in experiment [2], in experiment [3], in experiment [4] and in experiment [5] (sf9) was “Not Active” each time. The Ki result in experiment [2], in experiment [3] and in experiment [4] was “Not Active” throughout.
As to `COC(=O)Nc1nc2ccc(C(=O)c3cccs3)cc2[nH]1` [NOCODAZOLE], the IC50 entry in experiment [1], in experiment [2], in experiment [3], in experiment [4] and in experiment [5] (sf9) was “Not Active” each time. In addition, the Ki result in experiment [2], in experiment [3] and in experiment [4] was “Not Active” throughout.
As to `C#CC1(O)CC[C@H]2[C@@H]3CCC4=CC(=O)CC[C@@H]4[C@H]3CC[C@@]21CC` (stereo not given in full) [NORGESTREL], the 50% inhibitory concentration (IC50) entry in experiment [1], in experiment [2], in experiment [3], in experiment [4] and in experiment [5] (sf9) was “Not Active” throughout. The inhibition constant (Ki) result in experiment [2], in experiment [3] and in experiment [4] was “Not Active” throughout.
As for `COC(=O)Nc1nc2ccc([S+]([O-])c3ccccc3)cc2[nH]1` (stereo not given) [OXFENDAZOLE], the IC50 result in experiment [1], in experiment [2], in experiment [3], in experiment [4] and in experiment [5] (sf9) was “Not Active” in each case. The Ki result in experiment [2], in experiment [3] and in experiment [4] was “Not Active” in each case.
For `CC(=O)O[C@H]1C(=O)[C@@]2(C)[C@H]([C@H](OC(=O)c3ccccc3)[C@]3(O)C[C@H](OC(=O)[C@H](O)[C@@H](NC(=O)c4ccccc4)c4ccccc4)C(C)=C1C3(C)C)[C@]1(OC(C)=O)CO[C@@H]1C[C@@H]2O` [PACLITAXEL], the IC50 entry in experiment [1], in experiment [2], in experiment [3], in experiment [4] and in experiment [5] (sf9) was “Not Active” each time. In addition, the Ki result in experiment [2], in experiment [3] and in experiment [4] was “Not Active” throughout.
For the molecule `C[n+]1ccc(-c2cc[n+](C)cc2)cc1.[Cl-].[Cl-]` [PARAQUAT DICHLORIDE], the IC50 result in experiment [1], in experiment [2], in experiment [3], in experiment [4] and in experiment [5] (sf9) was “Not Active” throughout. Moreover, the Ki entry in experiment [2], in experiment [3] and in experiment [4] was “Not Active” in each case.
For the molecule `CC(C)NCC(O)COc1cccc2[nH]ccc12` (stereo not given) [PINDOLOL], the IC50 entry in experiment [1], in experiment [2], in experiment [3], in experiment [4] and in experiment [5] (sf9) was “Not Active” in each case. Also, the Ki result in experiment [2], in experiment [3] and in experiment [4] was “Not Active” each time.
As for `CCn1cc(C(=O)O)c(=O)c2cnc(N3CCCC3)nc21` [PIROMIDIC ACID], the IC50 result in experiment [1], in experiment [2], in experiment [3], in experiment [4] and in experiment [5] (sf9) was “Not Active” in each case. The Ki result in experiment [2], in experiment [3] and in experiment [4] was “Not Active” throughout.
Take `C[n+]1ccccc1/C=N/O.[Cl-]` [PRALIDOXIME CHLORIDE]: the IC50 entry in experiment [1], in experiment [2], in experiment [3], in experiment [4] and in experiment [5] (sf9) was “Not Active” each time. Besides, the Ki result in experiment [2], in experiment [3] and in experiment [4] was “Not Active” each time.
